From patent publication US9540615B2, “Combined chemical and genetic approaches for generation of induced pluripotent stem cells” (The Scripps Research Institute, priority 2008, dated 2017)

Tested on: primary OG2 neural progenitor cells
Assay: iPS cell induction from neural progenitor cells by retroviral transduction and BIX01294 treatment
Type: cell-based, mouse
Description: The reporter neural progenitor cells were generated using a well established protocol by differentiating the Oct4-GiP mESCs grown in monolayer on gelatin in a chemically defined medium/CDM condition in the absence of serum and other growth factors/cytokines at low cell density for eight days, followed by neurophere formation and subsequent serial passaging in single cells in neural cell expansion media supplemented with 10 ng/ml of bFGF and EGF in monolayer for over six passages/24 days. The resulting neural progenitor cells were homogenous by cell morphology and neural marker expression, and were confirmed to be GFP negative and puromycin sensitive. Such neural progenitor cells plated in monolayer in conventional mESC growth media were transduced with combinations of four, three, or two of the four factors, followed by treating the transduced cells with individual small molecules from a small known drug collection in a typical 6-well format. The compound treatment and culture were continued for additional ten days before puromycin was added. The number of green and puro-resistant colonies was counted at day 14. In comparison to the only four-gene transduced neural cells as the positive control, compound conditions that generated more green colonies than the corresponding gene-only conditions were picked as primary hits. To further confirm these primary hit conditions, we chose to use a late passage of mouse CNS neural progenitor cells (Do, J. T. et al., Stem Cells 25, 1013-1020 (2007)) that were derived from fetal brain of OG2^+/−/ROSA26^+/− transgenic mice (which contain an Oct4-GFP reporter) and expanded in monolayer under the same neural CDM condition as the above with 10 ng/ml of bFGF and EGF. Such cells truly from a non-pluripotent tissue would be devoid of concerns of any contaminating ES cell in the above screening system, which is although highly unlikely with all appropriate controls. Similar culture conditions and reprogramming assays were performed using the OG2 neural progenitor cells except that puromycin was not used and green colonies were picked out and characterized by staining of Nanog, SSEA1 and ALP.
mESC-derived or primary OG2 mouse neural progenitor cells were plated into Matrigel (1:50, BD Biosciences) coated 6-well plates at 3.5×10^4 cells/well in the neural progenitor cell expansion media. After one day these cells were transduced with retrovirus for overnight, and the medium was changed into the mESC growth media [DMEM, 5% FBS, 10% KSR, 1× non-essential amino acids (Gibco), 2 mM L-glutamine (Gibco), 0.1 mM β-mercaptoethanol (Gibco) and 10^3 unit/ml LIF (Chemicon)] with or without BIX01294 (0.5-1 μM). GFP-positive iPS cell colonies appeared after 9-14 days, and were picked out and expanded on MEF feeder cells with the mESC growth media.

COc1cc2nc(N3CCCN(C)CC3)nc(NC3CCN(Cc4ccccc4)CC3)c2cc1OC [BIX01294]
reprogramming efficiency (Klf4/Sox2/cMyc with BIX01294, absence of Oct4 expression): relatively low | kinetics of reprogramming (Oct4/Klf4 viral transduction, BIX01294 0.5-1 μM): didn't significantly shorten the kinetics of reprogramming | reprogramming efficiency (GFP+ iPS cell colonies) (Oct4/Klf4 viral transduction, BIX01294 0.5-1 μM, 3.5×10^4 cells/well): significantly improve the reprogramming efficiency to or higher than the level of using viral transduction of all four factors | time until GFP+ iPS cell colonies appeared (after transduction with Oct4/Klf4 retroviruses and BIX01294 treatment): 12 days | generation of iPS cells (viral transduction of Klf4, Sox2 and cMyc, absence of Oct4 expression, three factors alone gave no colony): can also generate iPS cells
